# Assay results from patent publication US9113629B2, “4-amino-6-(4-substituted-phenyl)-picolinates and 6-amino-2-(4-substituted-phenyl)-pyrimidine-4-carboxylates and their use as herbicides” (DOW AGROSCIENCES LLC, priority 2013, dated 2015).
# Where two headings read alike, the source gives them in different places.
# Legend:
# [1] = test system: Key Broadleaf Weed and Crop Species; assay: Post-emergent Test II herbicidal activity (Table 5); assay type: in vivo; settings: post-emergence, 336 h, post-emergent, 14 days after application; for pest or weed control at 70 g/ha: 70 g ai/ha; for pest or weed control at 140 g/ha: 140 g ai/ha
# Outline: (§1)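 Greenhouse post-emergent assay: seedlings (first/second true leaf) in Metro-Mix 360 were sprayed at 187 L/ha at a top rate plus twofold dilutions down to 1/16×; solvent-blank controls were included. Percent visual injury was read at 14 d.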
# [2] = test system: Key Grass and Sedge Weeds as well as Grass Crops; assay: Post-emergent Test II herbicidal activity (Table 6); assay type: in vivo; settings: post-emergence, 336 h; for pest or weed control at 70 g/ha: application rate 70 g ai/ha; for pest or weed control at 140 g/ha: application rate 140 g ai/ha
# Outline: as §1
# [3] = ABUTH: velvetleaf (Abutilon theophrasti), read-out: Visual Growth Reduction (%) 14 Days After Application ABUTH
# [4] = AMARE: redroot pigweed (Amaranthus retroflexus), read-out: Visual Growth Reduction (%) 14 Days After Application AMARE
# [5] = BRSNN: oilseed-rape, canola (Brassica napus), read-out: Visual Growth Reduction (%) 14 Days After Application BRSNN
# [6] = CHEAL: lambsquarters (Chenopodium album), read-out: Visual Growth Reduction (%) 14 Days After Application CHEAL
# [7] = EPHHL: wild poinsettia (Euphorbia heterophylla), read-out: Visual Growth Reduction (%) 14 Days After Application EPHHL
# [8] = HELAN: sunflower (Helianthus annuus), read-out: Visual Growth Reduction (%) 14 Days After Application HELAN
# [9] = VIOTR: wild pansy (Viola tricolor), read-out: Visual Growth Reduction (%) 14 Days After Application VIOTR
# [10] = Triticum aestivum, TRZSS (wheat), read-out: Visual Growth Reduction (%) 14 Days After Application, TRZSS
# [11] = CYPES: yellow nutsedge (Cyperus esculentus), read-out: Visual Growth Reduction (%) 14 Days After Application, CYPES
# [12] = DIGSA: crabgrass (Digitaria sanguinalis), read-out: Visual Growth Reduction (%) 14 Days After Application, DIGSA
# [13] = ECHCG: barnyardgrass (Echinochloa crus-galli), read-out: Visual Growth Reduction (%) 14 Days After Application, ECHCG
# [14] = ORYSA: rice (Oryza sativa), read-out: Visual Growth Reduction (%) 14 Days After Application, ORYSA
# [15] = SETFA: giant foxtail (Setaria faberi), read-out: Visual Growth Reduction (%) 14 Days After Application, SETFA
# [16] = SORVU: grain sorghum (Sorghum vulgare), read-out: Visual Growth Reduction (%) 14 Days After Application, SORVU
# [17] = ZEAMX: maize, corn (Zea mays), read-out: Visual Growth Reduction (%) 14 Days After Application, ZEAMX
smiles,measurement,setting,value
COC(=O)c1nc(-c2ccc(Br)cc2)c(Cl)c(N)c1Cl [Compound 47],pest or weed control at 70 g/ha,[1]; [3],95 to 100%
same,pest or weed control at 140 g/ha,[1]; [3],95 to 100%
same,pest or weed control at 70 g/ha,[1]; [4],95 to 100%
same,pest or weed control at 140 g/ha,[1]; [4],95 to 100%
same,pest or weed control at 70 g/ha,[1]; [5],95 to 100%
same,pest or weed control at 140 g/ha,[1]; [5],95 to 100%
same,pest or weed control at 70 g/ha,[1]; [6],95 to 100%
same,pest or weed control at 140 g/ha,[1]; [6],95 to 100%
same,pest or weed control at 70 g/ha,[1]; [7],85 to 94%
same,pest or weed control at 140 g/ha,[1]; [7],95 to 100%
same,pest or weed control at 70 g/ha,[1]; [8],95 to 100%
same,pest or weed control at 140 g/ha,[1]; [8],95 to 100%
same,pest or weed control at 70 g/ha,[1]; [9],0 to 29%
same,pest or weed control at 140 g/ha,[1]; [9],0 to 29%
same,pest or weed control at 70 g/ha,[2]; [10],45 to 59%
same,pest or weed control at 140 g/ha,[2]; [10],45 to 59%
same,pest or weed control at 70 g/ha,[2]; [11],85 to 94%
same,pest or weed control at 140 g/ha,[2]; [11],95 to 100%
same,pest or weed control at 70 g/ha,[2]; [12],75 to 84%
same,pest or weed control at 140 g/ha,[2]; [12],75 to 84%
same,pest or weed control at 70 g/ha,[2]; [13],85 to 94%
same,pest or weed control at 140 g/ha,[2]; [13],85 to 94%
same,pest or weed control at 70 g/ha,[2]; [14],0 to 29%
same,pest or weed control at 140 g/ha,[2]; [14],0 to 29%
same,pest or weed control at 70 g/ha,[2]; [15],85 to 94%
same,pest or weed control at 140 g/ha,[2]; [15],95 to 100%
same,pest or weed control at 70 g/ha,[2]; [16],85 to 94%
same,pest or weed control at 140 g/ha,[2]; [16],85 to 94%
same,pest or weed control at 70 g/ha,[2]; [17],85 to 94%
same,pest or weed control at 140 g/ha,[2]; [17],85 to 94%
"COC(=O)c1nc(-c2cc(F)c(Br)cc2F)c(F)c(N)c1Cl [Compound 51, methyl 4-amino-6-(4-bromo-2,5-difluorophenyl)-3-chloro-5-fluoropicolinate]",pest or weed control at 70 g/ha,[1]; [3],95 to 100%
same,pest or weed control at 140 g/ha,[1]; [3],95 to 100%
same,pest or weed control at 70 g/ha,[1]; [4],95 to 100%
same,pest or weed control at 140 g/ha,[1]; [4],95 to 100%
same,pest or weed control at 70 g/ha,[1]; [5],95 to 100%
same,pest or weed control at 140 g/ha,[1]; [5],95 to 100%
same,pest or weed control at 70 g/ha,[1]; [6],95 to 100%
same,pest or weed control at 140 g/ha,[1]; [6],95 to 100%
same,pest or weed control at 70 g/ha,[1]; [7],95 to 100%
same,pest or weed control at 140 g/ha,[1]; [7],95 to 100%
same,pest or weed control at 70 g/ha,[1]; [8],95 to 100%
same,pest or weed control at 140 g/ha,[1]; [8],95 to 100%
same,pest or weed control at 70 g/ha,[1]; [9],95 to 100%
same,pest or weed control at 140 g/ha,[1]; [9],95 to 100%
same,pest or weed control at 70 g/ha,[2]; [10],60 to 74%
same,pest or weed control at 140 g/ha,[2]; [10],85 to 94%
same,pest or weed control at 70 g/ha,[2]; [11],95 to 100%
same,pest or weed control at 140 g/ha,[2]; [11],95 to 100%
same,pest or weed control at 70 g/ha,[2]; [12],95 to 100%
same,pest or weed control at 70 g/ha,[2]; [13],95 to 100%
same,pest or weed control at 140 g/ha,[2]; [13],95 to 100%
same,pest or weed control at 70 g/ha,[2]; [14],0 to 29%
same,pest or weed control at 140 g/ha,[2]; [14],0 to 29%
same,pest or weed control at 70 g/ha,[2]; [15],95 to 100%
same,pest or weed control at 140 g/ha,[2]; [15],95 to 100%
same,pest or weed control at 70 g/ha,[2]; [16],95 to 100%
same,pest or weed control at 140 g/ha,[2]; [16],95 to 100%
same,pest or weed control at 70 g/ha,[2]; [17],85 to 94%
same,pest or weed control at 140 g/ha,[2]; [17],85 to 94%
"C=Cc1c(C(=O)OC)nc(-c2ccc(C(F)(F)F)c(F)c2F)c(F)c1N [Compound 53, methyl 4-amino-6-(2,3-difluoro-4-(trifluoromethyl)phenyl)-5-fluoro-3-vinylpicolinate]",pest or weed control at 70 g/ha,[1]; [3],0 to 29%
same,pest or weed control at 140 g/ha,[1]; [3],0 to 29%
same,pest or weed control at 70 g/ha,[1]; [4],0 to 29%
same,pest or weed control at 140 g/ha,[1]; [4],0 to 29%
same,pest or weed control at 70 g/ha,[1]; [5],0 to 29%
same,pest or weed control at 140 g/ha,[1]; [5],0 to 29%
same,pest or weed control at 70 g/ha,[1]; [6],0 to 29%
same,pest or weed control at 140 g/ha,[1]; [6],0 to 29%
same,pest or weed control at 70 g/ha,[1]; [7],95 to 100%
same,pest or weed control at 140 g/ha,[1]; [7],95 to 100%
same,pest or weed control at 70 g/ha,[1]; [8],0 to 29%
same,pest or weed control at 140 g/ha,[1]; [8],0 to 29%
same,pest or weed control at 70 g/ha,[1]; [9],0 to 29%
same,pest or weed control at 140 g/ha,[1]; [9],0 to 29%
same,pest or weed control at 70 g/ha,[2]; [10],0 to 29%
same,pest or weed control at 140 g/ha,[2]; [10],0 to 29%
same,pest or weed control at 70 g/ha,[2]; [11],0 to 29%
same,pest or weed control at 140 g/ha,[2]; [11],0 to 29%
same,pest or weed control at 70 g/ha,[2]; [12],0 to 29%
same,pest or weed control at 140 g/ha,[2]; [12],0 to 29%
same,pest or weed control at 70 g/ha,[2]; [13],0 to 29%
same,pest or weed control at 140 g/ha,[2]; [13],0 to 29%
same,pest or weed control at 70 g/ha,[2]; [14],0 to 29%
same,pest or weed control at 140 g/ha,[2]; [14],0 to 29%
same,pest or weed control at 70 g/ha,[2]; [15],0 to 29%
same,pest or weed control at 140 g/ha,[2]; [15],0 to 29%
same,pest or weed control at 70 g/ha,[2]; [16],0 to 29%
same,pest or weed control at 140 g/ha,[2]; [16],0 to 29%
same,pest or weed control at 70 g/ha,[2]; [17],0 to 29%
same,pest or weed control at 140 g/ha,[2]; [17],0 to 29%
